Results: patent US11780841B2, “3,6-methano-1H-pyrrolo[3,2-b]pyridine and 3,6-methano-1H-pyrrolo[3,2-c]pyridine compounds and medicaments using same” (priority 2018, dated 2023)

Test system: recombinant rabies virus 1088 strain expressing Gaussia Luciferase (GLuc) (1088/GLuc)
Format: cell-based
Conditions: read-out: Anti-rabies activity

Compared with CC(C)CC[C@@H]1[C@H]2CN[C@@]3(C(=O)NCCO)[C@@H](C2)CN(CCc2ccccc2)[C@@H]13 [IB-461], CC(C)CCNC(=O)[C@]12NC[C@H]3C[C@H]1CN(CCO)[C@H]2[C@@H]3Cc1cccc2ccccc12 [IB-727] is lower in IC50: 10 to 30 µM for the first, under 5 µM for the second.

First: CC(C)CC[C@@H]1[C@@H]2[C@@H]3CN[C@@]1(C(=O)NCCc1ccccc1)C[C@@H]3CN2Cc1ccccc1 [IF-723]
Second: CC(C)CCNC(=O)[C@@]12C[C@@H]3CN(Cc4ccccc4)[C@@H]([C@@H]3CN1)[C@H]2Cc1ccccc1 [IF-665]
The IC50 of the first is higher: 10 to 30 µM for the first, under 5 µM for the second.

CC(C)CC[C@@H]1[C@H]2CN[C@@]3(C(=O)NCCC(=O)O)[C@@H](C2)CN(CC2CCCCC2)[C@@H]13 [IB-613] and CC(C)CNC(=O)C12NCC3CC1CN(CC1CCCCC1)C2C3CCC(=O)O (stereo not drawn) [IB-510] fall in the same range of IC50: 10 to 30 µM for the first, 10 to 30 µM for the second.

Compared with NC(=O)C[C@@H]1[C@@H]2[C@@H]3CN[C@@]1(C(=O)NCCc1ccccc1)C[C@@H]3CN2CC1CCCCC1 [IF-251], CCCCCCNC(=O)[C@@]12C[C@@H]3CN(CC(N)=O)[C@@H]([C@@H]3CN1)[C@H]2Cc1cccc2ccccc12 [IF-110] is lower in IC50: 10 to 30 µM for the first, under 5 µM for the second.

CC(C)CC[C@@H]1[C@@H]2[C@@H]3CN[C@@]1(C(=O)NCCO)C[C@@H]3CN2Cc1cccc2ccccc12 [IF-613] and CC(C)CCNC(=O)[C@@]12C[C@@H]3CN(CC(C)C)[C@@H]([C@@H]3CN1)[C@H]2Cc1cccc2ccccc12 [IF-674] fall in the same range of IC50: 10 to 30 µM for the first, 10 to 30 µM for the second.

CC(C)CC1C2C=NC3(C(=O)NCc4ccccc4)C(C2)CN(Cc2ccc(N(C)C)cc2)C13 (stereo not drawn) [IIB-94] and CC(C)C[C@@H]1[C@H]2CN[C@@]3(C(=O)NCc4ccccc4)[C@@H](C2)CN(Cc2ccc(Cl)cc2)[C@@H]13 [IB-864] fall in the same range of IC50: 5 to 10 µM for the first, 5 to 10 µM for the second.

CC(C)NC(=O)[C@@]12C[C@@H]3CN(Cc4ccc(O)cc4)[C@@H]([C@@H]3CN1)[C@H]2Cc1cccc2ccccc12 [IF-504] and O=C(NCCc1ccccc1)[C@@]12C[C@@H]3CN(Cc4ccc(O)cc4)[C@@H]([C@@H]3CN1)[C@H]2Cc1cccc2ccccc12 [IF-580] fall in the same range of IC50: 10 to 30 µM for the first, 10 to 30 µM for the second.

CC(C)CNC(=O)[C@]12NC[C@@H]3C[C@H]1CN(Cc1ccccc1)[C@H]2[C@@H]3CC(C)C (relative stereo) [IB-4] and CCOc1ccc(CN2C[C@@H]3C[C@@H]4CN[C@]3(C(=O)NCc3ccccc3)[C@@H]2[C@@H]4CC(C)C)cc1 [IB-878] fall in the same range of IC50: 10 to 30 µM for the first, 10 to 30 µM for the second.

N=C(N)NCCC[C@@H]1[C@H]2CN[C@@]3(C(=O)NCCc4ccccc4)[C@@H](C2)CN(Cc2ccccc2)[C@@H]13 [IB-247] and O=C(NCCO)[C@]12NC[C@H]3C[C@H]1CN(Cc1ccccc1)[C@H]2[C@@H]3Cc1ccccc1 [IB-676] fall in the same range of IC50: 10 to 30 µM for the first, 10 to 30 µM for the second.

CC(C)CCNC(=O)[C@]12NC[C@H]3C[C@H]1CN(CC1CCCCC1)[C@H]2[C@@H]3Cc1ccc(O)cc1 [IB-648] and CC(C)CC[C@@H]1[C@H]2CN[C@@]3(C(=O)NCc4ccc(O)cc4)[C@@H](C2)CN(CCC(=O)O)[C@@H]13 [IB-402] fall in the same range of IC50: 10 to 30 µM for the first, 10 to 30 µM for the second.

O=C(NCc1ccccc1)[C@]12NC[C@H]3C[C@H]1CN(Cc1cccc4ccccc14)[C@H]2[C@@H]3Cc1ccccc1 (relative stereo) [IB-42, (3S*,3aS*,6S*,7R*,7aS*)-N,7-dibenzyl-1-(naphthalen-1-ylmethyl)octahydro-3aH-3,6-methanopyrrolo[3,2-b]pyridine-3a-carboxamide] and O=C(O)CCNC(=O)[C@]12NC[C@H]3C[C@H]1CN(Cc1ccc(O)cc1)[C@H]2[C@@H]3Cc1cccc2ccccc12 [IB-410] fall in the same range of IC50: 10 to 30 µM for the first, 10 to 30 µM for the second.

Compared with CC(C)CCN1C[C@@H]2C[C@@H]3CN[C@]2(C(=O)NCC(C)C)[C@@H]1[C@@H]3CC(C)C [IB-753], Cc1ccc(CNC(=O)[C@@]23C[C@@H]4CN(CC(C)C)[C@@H]([C@@H]4C=N2)[C@H]3Cc2ccccc2)cc1 (relative stereo) [IIF-16] is higher in IC50: under 5 µM for the first, 10 to 30 µM for the second.

O=C(NCc1ccc(O)cc1)[C@@]12C[C@@H]3CN(Cc4ccc(F)cc4)[C@@H]([C@@H]3CN1)[C@H]2Cc1ccccc1 [IF-481] gave an IC50 of 10 to 30 µM.

Same assay, conditions: read-out: IC50

CC(C)CNC(=O)[C@]12NC[C@@H]3C[C@H]1CN(Cc1ccccc1)[C@H]2[C@@H]3CC(C)C (relative stereo) [IB-4] and Cc1ccc(CNC(=O)[C@@]23C[C@@H]4CN(CC(C)C)[C@@H]([C@@H]4C=N2)[C@H]3Cc2ccccc2)cc1 (relative stereo) [IIF-16] are within 1.5-fold of each other in IC50: 19.2 µM for the first, 28.7 µM for the second.
